For the assay, the system named is hyaluronic acid. The assay is classed as cell-based.

Consider 4-Methylumbelliferone [4-MU], for which the “Hyaluronic acid with 4-MU, HIS-SARS-CoV-2-3 overexpressed” value was 30.02 ± 2.00 ng/mL and the “Hyaluronic acid with 4-MU, HIS-SARS-CoV-2-4 overexpressed” value was found to be 19.76 ± 11.3 ng/mL.

(Values after patent publication US12251434B2 (priority 2021, dated 2025).)
